# Results reported in patent US20230011131A1, “NOVEL COMPOUND FOR INHIBITING HISTONE ACETYLTRANSFERASE P300 AND ANTI-FIBROSIS COMPOSITION COMPRISING SAME” (REFURE LIFE SCIENCE INC., priority 2019, published 2023).
# Molecular target: HAT p300 (histone acetyltransferase p300) (Homo sapiens, UniProt Q09472)
# Assay: HAT activity kit (Biovision K332): inhibition of HAT activity of p300
# Assay type: biochemical
# Conditions: for IC50: 0.5, 1, 10 or 100 μM; for HAT activity inhibitory effect (HAT p300 activity inhibited): Synthesis Examples diluted to 100 μM
# Description: Candidates 1 to 67, which are HAT inhibitors manufactured based on the PCAF structure, and HAT-24, HAT-26, and HAT-28 were diluted to 100 μM, and the degree of inhibition of HAT activity of p300 (inhibitory activity) was then determined using a kit for measuring HAT activity (Biovision, Cat No. K332, U.S.A) according to the method provided by the manufacturer. Here, the tissue was treated with C646 (HAT inhibitor) as a positive control.
# Candidates 1 to 14 having a good HAT activity inhibitory effect in Section were diluted to concentrations of 0.5 μM, 1 μM, 10 μM, and 100 μM. Thereafter, the degree of inhibition of HAT activity was determined in the same manner as in Section.
# Each of Synthesis Examples 1 to 24 was diluted to 100 μM, and the degree of inhibition of HAT p300 activity was determined in the same manner as in Section. Here, the tissues were treated with C646 and Candidate 12 (HAT-12) as the control instead of Synthesis Examples 1 to 24.
# HAT p300 (histone acetyltransferase p300), sequence (Q09472 whole entry): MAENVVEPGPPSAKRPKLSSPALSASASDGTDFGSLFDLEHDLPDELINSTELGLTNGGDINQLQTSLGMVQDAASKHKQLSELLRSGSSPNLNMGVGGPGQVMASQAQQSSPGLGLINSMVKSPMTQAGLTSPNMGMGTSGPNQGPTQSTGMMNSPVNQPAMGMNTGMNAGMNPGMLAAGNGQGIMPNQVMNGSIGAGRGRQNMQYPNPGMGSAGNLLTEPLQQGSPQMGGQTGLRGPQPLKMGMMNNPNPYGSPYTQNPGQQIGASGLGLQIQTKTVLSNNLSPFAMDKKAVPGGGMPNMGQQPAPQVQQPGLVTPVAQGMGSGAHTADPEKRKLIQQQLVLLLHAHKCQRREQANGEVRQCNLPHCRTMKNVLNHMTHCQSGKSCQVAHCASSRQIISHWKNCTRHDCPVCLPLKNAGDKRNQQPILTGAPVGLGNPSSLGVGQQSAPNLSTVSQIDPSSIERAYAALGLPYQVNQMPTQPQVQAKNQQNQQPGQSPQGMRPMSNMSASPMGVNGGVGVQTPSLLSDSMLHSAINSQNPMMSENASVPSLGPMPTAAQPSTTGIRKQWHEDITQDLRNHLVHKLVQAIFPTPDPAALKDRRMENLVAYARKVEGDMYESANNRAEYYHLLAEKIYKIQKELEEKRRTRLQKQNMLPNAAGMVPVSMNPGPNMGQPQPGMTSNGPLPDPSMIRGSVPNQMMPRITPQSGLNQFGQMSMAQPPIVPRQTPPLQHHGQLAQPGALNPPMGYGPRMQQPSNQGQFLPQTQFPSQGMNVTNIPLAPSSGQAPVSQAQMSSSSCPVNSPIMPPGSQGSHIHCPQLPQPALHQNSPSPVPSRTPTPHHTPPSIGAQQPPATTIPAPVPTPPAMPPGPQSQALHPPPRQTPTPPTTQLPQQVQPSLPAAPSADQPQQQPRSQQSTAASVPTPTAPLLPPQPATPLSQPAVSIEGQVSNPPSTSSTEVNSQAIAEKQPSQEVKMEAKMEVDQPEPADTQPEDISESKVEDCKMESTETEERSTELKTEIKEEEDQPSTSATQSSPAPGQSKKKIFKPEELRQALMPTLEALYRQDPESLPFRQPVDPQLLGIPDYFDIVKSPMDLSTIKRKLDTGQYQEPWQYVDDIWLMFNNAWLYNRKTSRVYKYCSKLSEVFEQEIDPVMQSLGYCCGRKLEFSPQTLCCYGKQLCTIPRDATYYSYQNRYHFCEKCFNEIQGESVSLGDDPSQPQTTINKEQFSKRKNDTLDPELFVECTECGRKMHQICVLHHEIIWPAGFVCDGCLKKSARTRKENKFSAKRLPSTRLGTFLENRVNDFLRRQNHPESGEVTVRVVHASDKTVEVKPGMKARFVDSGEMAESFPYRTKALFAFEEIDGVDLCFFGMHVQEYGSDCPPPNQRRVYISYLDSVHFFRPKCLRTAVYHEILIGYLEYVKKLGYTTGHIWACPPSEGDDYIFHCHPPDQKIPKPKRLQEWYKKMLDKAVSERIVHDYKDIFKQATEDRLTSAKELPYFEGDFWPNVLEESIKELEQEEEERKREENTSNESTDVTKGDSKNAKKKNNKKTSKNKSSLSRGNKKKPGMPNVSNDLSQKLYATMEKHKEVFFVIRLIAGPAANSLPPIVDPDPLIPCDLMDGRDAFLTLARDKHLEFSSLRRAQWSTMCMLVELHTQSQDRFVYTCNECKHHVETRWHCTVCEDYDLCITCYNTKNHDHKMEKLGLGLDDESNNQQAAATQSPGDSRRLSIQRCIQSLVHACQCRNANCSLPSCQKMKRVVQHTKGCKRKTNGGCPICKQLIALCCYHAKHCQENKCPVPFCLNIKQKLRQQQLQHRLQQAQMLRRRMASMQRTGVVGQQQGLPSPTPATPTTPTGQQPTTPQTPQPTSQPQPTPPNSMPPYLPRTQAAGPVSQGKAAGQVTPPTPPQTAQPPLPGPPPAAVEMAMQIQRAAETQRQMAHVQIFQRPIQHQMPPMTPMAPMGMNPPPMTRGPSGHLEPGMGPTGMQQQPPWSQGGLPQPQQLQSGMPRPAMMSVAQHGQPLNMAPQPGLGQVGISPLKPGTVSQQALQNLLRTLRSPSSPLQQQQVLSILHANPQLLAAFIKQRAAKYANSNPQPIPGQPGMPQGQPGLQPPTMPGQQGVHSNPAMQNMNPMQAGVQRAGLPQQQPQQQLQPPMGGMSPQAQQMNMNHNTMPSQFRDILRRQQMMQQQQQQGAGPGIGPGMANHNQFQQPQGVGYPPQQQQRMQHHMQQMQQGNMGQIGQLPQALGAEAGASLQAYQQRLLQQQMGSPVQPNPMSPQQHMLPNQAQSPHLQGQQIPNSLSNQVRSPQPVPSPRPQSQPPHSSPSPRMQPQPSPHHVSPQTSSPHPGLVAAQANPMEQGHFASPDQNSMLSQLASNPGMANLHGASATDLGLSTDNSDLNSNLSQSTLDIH
Structure (SMILES),IC50,HAT activity inhibitory effect (HAT p300 activity inhibited)
"COc1cc(/C=C/C(=O)c2cccc(C(N)=O)c2)cc(I)c1OCc1cccc(C(N)=O)c1 [Synthesis Example 6, (E)-3-(3-(4-((3-carbamoylbenzyl)oxy)-3-iodo-5-methoxyphenyl)acryloyl) benzamide]",0.87 µM,~100%
COc1cc(/C=C/C(=O)c2cccc(O)c2)cc(Br)c1OCc1cccc(C(N)=O)c1 [Synthesis Example 8],1.06 µM,~100%
